# Measurements taken from patent US20080311657A1, “Killing Human Lymphoma and Leukemia Cancer Cells and Tcr-Activated Normal Human Cells By Dopamine D1r Agonists” (priority 2005, published 2008).
# How the values were obtained:
# Assay in all cases: Number of living cells counted by flow cytometry (FACSort) after D1R agonist
# Assay type in all cases: cell-based
# [1] = tested on: Human Burkitt's B-lymphoma cells (Daudi); conditions: 10^−3M-10^−6M, 3 days
# Description: (§1) Human Burkitt's B-lymphoma cells (Daudi) were seeded in 96 well plates (0.5 ml per well of 0.5 million cells/ml) and A 77636 hydrochloride was added and diluted 1:00 into the wells at starting concentrations of 10^−1M-10^−4M, so that the final concentration range tested was 10^−3M-10^−6M. […] Then, the number of living cells was evaluated by flow cytometry (the cells were counted by FACsort for a fixed time length of 1 min, in which 100 microliter of each sample was tested).
# as §1, with “68930” for “77636”
# […] Then, the number of living cells was evaluated by flow cytometry (the cells were counted by FACsort for a fixed time length of 1 min, in which 100 microliter of each sample was tested).
# Cell viability was tested afterwards.
# The effect of dopamine itself (that can of course activate all its D1R-5 receptors) was also tested. All of these molecules were tested at a similar concentration (10^−4 M). […] The specificity and restriction of the effect to the D1R is also seen in Tables 7 and 8.
# [2] = tested on: Human cutaneous Sezary T-lymphoma cells (HuT-78); conditions: 10^−3M-10^−6M, 3 days
# Description: (§2) Human cutaneous Sezary T-lymphoma cells (HUT-78) were seeded in 96 well plates (0.5 ml per well of 0.5 million cells/ml) and A 77636 hydrochloride was added and diluted 1:00 into the wells at starting concentrations of 10^−1M-10^−4M, so that the final concentration range tested was 10^−3M-10^−6M. Afterwards, the microtiter plates were placed in an incubator (37° C., humidified incubator, 5% CO2) for 3 days. Then, the number of living cells was evaluated by flow cytometry (the cells were counted by FACsort for a fixed time length of 1 min, in which 100 microliter of each sample was tested).
# as §2, with “68930” for “77636”
# as §2, with “SKF 38393 hydrobromide” for “A 77636 hydrochloride”
# Cell viability was tested afterwards. […]
# Cell survival/death was evaluated 3 days later by counting the number of living cells, using flow cytometry.
# [3] = tested on: Human chronic myelogenous leukemia cells (CML) (K-562); conditions: for % of the cells killed: living cells counted 3 days later
structure (smiles),measurement,setting,value
"Cl.NC[C@@H]1O[C@H](C23CC4CC(CC(C4)C2)C3)Cc2c1ccc(O)c2O [A 77636 hydrochloride, (1R-cis)-1-(aminomethyl)-3,4-dihydro-3-tricyclo[3.3.1.13,7]dec-1-yl-[1H]-2-benzopyran-5,6-diol hydrochloride]","Cell death by number of living cells (FIGS. 16-18), in words",[1],induces marked cell death
same,"Cell death by number of living cells (FIGS. 13-15), in words",[2],induces marked cell death
same,"Cell death by number of living cells (FIGS. 22-24), in words","[3]; 10^−3M-10^−6M, 3 days",induces marked cell death
same,% of the cells killed,"[3]; 10^−4M, exposure 1 minute then washed",≈ 48%
same,% of the cells killed,"[3]; 10^−4M, exposure 15 minutes then washed",60%
same,% of the cells killed,"[3]; 10^−4M, exposure 1 hour then washed",76%
same,"Killing, in words","[3]; 10^−4M, incubation 72 hours",no additional value beyond the 1-hour effect
same,"Speed of cell death by number of living cells (FIG. 29), in words","[3]; 10^−4M, exposure 1 min, 15 min, 1 hr or 72 hr",very rapid death
